Test results taken from PubChem BioAssay AID1918947 (Molecular Pharmacology Branch, DTP, NCI, 2023).
Several values for one entry are separate records, joined by “and”; a condition that tells them apart may be missing. Equal entries are not always repeated.

System: A498 complex spheroid viability
Assay: Anticancer human tumor A498 cell line growth inhibition;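 also: spheroids exposed to agents for seven days before readout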;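 as to viability, T/C: 100% = DMSO vehicle-treated spheroids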
Conditions: for viability, T/C: stronger effect = lower value; active = viability on the fitted dose curve at most 10% of control; inactive = the rest
Source text: Multicellular complex tumor spheroid response to LSD1 Inhibitor Iadademstat in combination with a variety of drugs and investigational agents in selected tumor cell lines
The current study was undertaken to assess response to LSD1 inhibitors in combination with standard-of-care drugs and investigational agents in solid tumor complex spheroid models as well as in the K-562 leukemia. Complex spheroids include a stromal component modeled by human endothelial cells (HUVEC) and fibroblasts modeled by human mesenchymal stem cells (MSCs). The concentration ranges selected for each drug and investigational agent were based upon clinically achievable concentrations if the clinical Cmax of the agent was known.
Compounds. The drugs and investigational agents used in this study are listed on Table 1. All of the agents used, including staurosporine (NSC755774) and gemcitabine (NSC613327), were obtained from the Developmental Therapeutics Program, NCI. FDA-approved anticancer drugs are available from the NCI at http://dtp.nci.nih.gov/branches/dscb/oncology_drugset_explanation.html. Drugs and investigational agents were >95% pure by proton nuclear magnetic resonance (NMR) and liquid chromatography/mass spectrometry (LC/MS). Stock solutions were prepared at 400x in DMSO, stored at -70 degrees C, and diluted in fresh medium prior to their use. The final concentration of DMSO in cell culture wells never exceeded 0.25% (v/v). The FDA-approved anticancer drug set is available from the Developmental Therapeutics Program at https://dtp.cancer.gov/organization/dscb/obtaining/available_plates.htm. All drugs and investigational agents were tested over a range starting from a high concentration at or near the clinical Cmax and decreasing in half-log increments. If the clinical Cmax for an agent had not been determined, the highest concentration tested was 10 microM.
Cell Lines. The patient-derived cancer cell (PDC) lines: 292921-168-R-J2-PDC, K24384-001-R-PDC, and 521955-158-R2-J5-PDC pancreatic carcinomas, 556581-035-R-J1 ovarian carcinoma, 324938-238-R-J1-PDC, 855422-203-R-J1-PDC and 883617-216-R-J1-PDC urothelial bladder carcinomas, 743489-274-T-PDC renal cell carcinoma, 138582-R-J1 Merkel cell tumor, K60290-347-R-J1 and K57222-313-R-J1-PDC glioblastomas, 653999-131-R-J2-PDC, LG0703-F948-PDC, and 349418-098-R-PDC non-small cell lung carcinomas, 885512-296-R-J2-PDC, 171881-019-R-J1-PDC breast carcinomas and 186277-243-T-J2-PDC and 233499-124-R-J2-PDC colon carcinomas were obtained from the NCI Patient-Derived Models Repository (PDMR, https://pdmr.cancer.gov). The established cell lines NCI/ADR-RES (RRID:CVCL_14520 and OVCAR-5 (RRID:CVCL_1628) ovarian carcinomas, 786-O (RRID:CVCL_1051) and A498 (RRID:CVCL_A498) renal cell carcinoma, NCI-H211 (ATCC, cat. CRL-5824; RRID:CVCL_1529), NCI-H196 (ATCC, cat. CRL-5823, RRID:CVCL_1509), SW 1271 (ATCC, cat. CRL-2177, RRID:CVCL_1716) and NCI-H1876 (ATCC, cat. CRL-5902, RRID:CVCL_1503) small cell lung carcinomas, MDA-MB-231 (RRID:CVCL_0062) and MDA-MB-468 (RRID:CVCL_0419)breast carcinomas (10-12). Pooled donor human umbilical vein endothelial cells (HUVEC, Lonza, cat. CC-2519) and human mesenchymal stem cells (hMSC, Lonza, cat. PT-2501) were purchased from Lonza (Walkersville, MD).
Cell Culture. All cells were maintained in an incubator at 37 degrees C and 5% CO2 with 95% humidity. The PDC lines were cultured according to standard operating procedures established by the NCI PDMR (https://pdmr.cancer.gov). Briefly all PDCs were thawed and cultured in Matrigel-coated flasks prepared with a working solution of 1X Ham's F-12 nutrient mix, without supplementation (Invitrogen, Waltham, MA, cat. 11765054), 100 U/mL penicillin-streptomycin (Invitrogen, cat. 15140122), and 2.5% Matrigel (Corning Inc., Corning, NY, cat. 354248) for the first three passages. […]

[1] = curve of first compound, second compound 0.1 µM
[2] = curve of first compound, second compound 0.316 µM
[3] = curve of first compound, second compound 1 µM
[4] = curve of first compound, second compound 3.16 µM
[5] = curve of first compound, second compound 10 µM
[6] = second compound 0.1 µM, first compound 0.0316 µM
[7] = second compound 0.1 µM, first compound 0.1 µM
[8] = second compound 0.1 µM, first compound 0.316 µM
[9] = second compound 0.1 µM, first compound 1 µM
[10] = second compound 0.316 µM, first compound 0.0316 µM
[11] = second compound 0.316 µM, first compound 0.1 µM
[12] = second compound 0.316 µM, first compound 0.316 µM
[13] = second compound 0.316 µM, first compound 1 µM
[14] = second compound 1 µM, first compound 0.0316 µM
[15] = second compound 1 µM, first compound 0.1 µM
[16] = second compound 1 µM, first compound 0.316 µM
[17] = second compound 1 µM, first compound 1 µM
[18] = second compound 3.16 µM, first compound 0.0316 µM
[19] = second compound 3.16 µM, first compound 0.1 µM
[20] = second compound 3.16 µM, first compound 0.316 µM
[21] = second compound 3.16 µM, first compound 1 µM
[22] = second compound 10 µM, first compound 0.0316 µM
[23] = second compound 10 µM, first compound 0.1 µM
[24] = second compound 10 µM, first compound 0.316 µM
[25] = second compound 10 µM, first compound 1 µM
[26] = second compound 0.1 µM, first compound 0.00316 µM
[27] = second compound 0.1 µM, first compound 0.01 µM
[28] = second compound 0.316 µM, first compound 0.00316 µM
[29] = second compound 0.316 µM, first compound 0.01 µM
[30] = second compound 1 µM, first compound 0.00316 µM
[31] = second compound 1 µM, first compound 0.01 µM
[32] = second compound 3.16 µM, first compound 0.00316 µM
[33] = second compound 3.16 µM, first compound 0.01 µM
[34] = second compound 10 µM, first compound 0.00316 µM
[35] = second compound 10 µM, first compound 0.01 µM

CC(C)c1c(-c2ccccc2)nc2c(C#N)c[nH]n2c1=O + NC1CC1c1ccc(-c2cccc(O)c2)cc1
inactive: viability, T/C [6] 98% | viability, T/C [7] 113% | viability, T/C [8] 106% | viability, T/C [9] 102% | viability, T/C (second compound 0.1 µM, first compound 3.16 µM) 104% | viability, T/C (second compound 0.1 µM, first compound 10 µM) 108% | viability, T/C [10] 104% | viability, T/C [11] 101% | viability, T/C [12] 101% | viability, T/C [13] 107% | viability, T/C (second compound 0.316 µM, first compound 3.16 µM) 99.1% | viability, T/C (second compound 0.316 µM, first compound 10 µM) 97.4% | viability, T/C [14] 93.4% | viability, T/C [15] 101% | viability, T/C [16] 95.6% | viability, T/C [17] 99.5% | viability, T/C (second compound 1 µM, first compound 3.16 µM) 89% | viability, T/C (second compound 1 µM, first compound 10 µM) 98% | viability, T/C [18] 97.4% | viability, T/C [19] 94% | viability, T/C [20] 97.5% | viability, T/C [21] 94.7% | viability, T/C (second compound 3.16 µM, first compound 3.16 µM) 94.9% | viability, T/C (second compound 3.16 µM, first compound 10 µM) 98.5% | viability, T/C [22] 86.7% | viability, T/C [23] 92% | viability, T/C [24] 91.3% | viability, T/C [25] 97.4% | viability, T/C (second compound 10 µM, first compound 3.16 µM) 96.1% | viability, T/C (second compound 10 µM, first compound 10 µM) 94.9%
> 10000 nM: IC50 [1] | IC50 [2] | IC50 [3] | IC50 [4] | IC50 [5]

O=C(C=Cn1cnc(-c2cc(C(F)(F)F)cc(C(F)(F)F)c2)n1)NNc1cnccn1 + NC1CCC(NC2CC2c2ccccc2)CC1
6.26 nM: IC50 [3]
6.7 nM: IC50 [4]
inactive: viability, T/C [26] 56.5% | viability, T/C [27] 40.9% | viability, T/C [6] 33.6% | viability, T/C [7] 26.6% | viability, T/C [8] 24.9% | viability, T/C [9] 20.9% | viability, T/C [28] 66.7% | viability, T/C [29] 44.4% | viability, T/C [10] 33.5% | viability, T/C [11] 31.2% | viability, T/C [12] 24.1% | viability, T/C [13] 23.4% | viability, T/C [30] 62.4% | viability, T/C [31] 39.2% | viability, T/C [14] 34.1% | viability, T/C [15] 27.1% | viability, T/C [16] 21.9% | viability, T/C [17] 21.2% | viability, T/C [32] 61.5% | viability, T/C [33] 42.6% | viability, T/C [18] 34.1% | viability, T/C [19] 26.9% | viability, T/C [20] 21.5% | viability, T/C [21] 20.5% | viability, T/C [34] 53.4% | viability, T/C [35] 39.2% | viability, T/C [22] 31.1% | viability, T/C [23] 26.4% | viability, T/C [24] 22.9% | viability, T/C [25] 16.4%
5.21 nM: IC50 [1]
7.74 nM: IC50 [2]
4.09 nM: IC50 [5]

CC(C)CC(NC(=O)C(Cc1ccccc1)NC(=O)c1cnccn1)B(O)O (centres undefined)
inactive: viability, T/C (compound 0.000316 µM) 103% | viability, T/C (compound 0.001 µM) 59.9% and 22.5%
active: viability, T/C (compound 0.00316 µM) 3.38% and 2.52% | viability, T/C (compound 0.01 µM) 0.64% and 0.86% | viability, T/C (compound 0.0316 µM) 0.57% and 0.5% | viability, T/C (compound 0.1 µM) 0.31% and 0.36%
1.22 nM and 0.674 nM: IC50 (curve of compound)

Nc1ncn(C2CC(O)C(CO)S2)c(=O)n1 (centres undefined)
inactive: viability, T/C (compound 0.000949 µM) 105% and 109% | viability, T/C (compound 0.003 µM) 104% and 117% | viability, T/C (compound 0.00949 µM) 99.6% and 102% | viability, T/C (compound 0.03 µM) 85.2% and 89.5% | viability, T/C (compound 0.0949 µM) 59.4% and 70% | viability, T/C (compound 0.3 µM) 33.8% and 40%
144 nM and 202 nM: IC50 (curve of compound)

O=C(C=Cn1cnc(-c2cc(C(F)(F)F)cc(C(F)(F)F)c2)n1)NNc1cnccn1 + NC1CC1c1ccc(-c2cccc(O)c2)cc1
9.73 nM: IC50 [2]
inactive: viability, T/C [26] 69.8% | viability, T/C [27] 50.3% | viability, T/C [6] 40.5% | viability, T/C [7] 29.3% | viability, T/C [8] 25.2% | viability, T/C [9] 19.3% | viability, T/C [28] 72.2% | viability, T/C [29] 47.7% | viability, T/C [10] 37.5% | viability, T/C [11] 28.8% | viability, T/C [12] 25.8% | viability, T/C [13] 20.1% | viability, T/C [30] 70.9% | viability, T/C [31] 46.9% | viability, T/C [14] 37.1% | viability, T/C [15] 28.4% | viability, T/C [16] 27.8% | viability, T/C [17] 20.7% | viability, T/C [32] 61% | viability, T/C [33] 41.9% | viability, T/C [18] 34.8% | viability, T/C [19] 26.8% | viability, T/C [20] 27% | viability, T/C [21] 22.3% | viability, T/C [34] 61.3% | viability, T/C [35] 43.8% | viability, T/C [22] 36.5% | viability, T/C [23] 31.8% | viability, T/C [24] 24.1% | viability, T/C [25] 21.6%
9.22 nM: IC50 [3]
11.8 nM: IC50 [1]
6.36 nM: IC50 [4]
7.24 nM: IC50 [5]
